Values after ≈ are worked out from the molar mass of the structure shown. Active and inactive are the calls of the source. No cut-off for these calls is given here.
Tests used:
Cynomolgus monkey [1] = assay: In vivo inhibition of complement factor D in cynomolgus monkey assessed as serum concentration required to show complete reduction in zymosan-induced AP activation by measuring soluble MAC complex deposition at 10 to 50 mg/kg, po administered as single dose via gavage measured at 4 to 24 hrs post dose by LC-MS analysis; format: functional, Macaca fascicularis
[2] = Drug uptake in Brown Norway rat plasma at 10 mg/kg, po administered as single dose via gavage after 6 hrs by HPLC-MS/MS analysis; format: ADME, organism-based
Lymphocyte = assay: Genotoxicity in human primary lymphocytes by micronucleus test; format: toxicity, cell-based
Cynomolgus monkey [3] = assay: In vivo inhibition of complement factor D in cynomolgus monkey assessed as decrease in zymosan-induced AP activation by measuring soluble MAC complex deposition in serum at 10 to 50 mg/kg, po administered as single dose via gavage measured 4 hrs post dose; format: functional, organism-based; settings: Macaca fascicularis
Cytochrome P450 3A4 = Cytochrome P450 3A4 (Homo sapiens, UniProt P08684)
Cytochrome P450 2D6 = Cytochrome P450 2D6 (Homo sapiens, UniProt P10635)
[4] = target: Voltage-gated inwardly rectifying potassium channel KCNH2 (Homo sapiens, UniProt Q12809)
[5] = Drug uptake in Brown Norway rat posterior eye cup at 10 mg/kg, po administered as single dose via gavage after 6 hrs by LC-MS/MS analysis; format: ADME, organism-based; settings: read-out: Drug uptake
Cynomolgus monkey [6] = assay: In vivo inhibition of complement factor D in cynomolgus monkey assessed as decrease in zymosan-induced AP activation by measuring soluble MAC complex deposition in serum administered as single dose via oral gavage measured at 4 to 24 hrs post dose; format: functional, organism-based; settings: Macaca fascicularis
Cytochrome P450 2C9 = Cytochrome P450 2C9 (Homo sapiens, UniProt P11712)
Mus musculus [7] = assay: In vivo inhibition of complement activation in B6-Cfdtm1.1(CFD)Npa mouse assessed as decrease C3d generation in eyes at 30 mg/kg, po administered via gavage treated up to 24 hrs prior to test and LPS challenge up to 7.5 hrs prior to test measured up to 12 hrs; format: functional, organism-based
Mus musculus [8] = assay: In vivo inhibition of complement activation in B6-Cfdtm1.1(CFD)Npa mouse assessed as decrease iC3b generation in eyes at 30 mg/kg, po administered via gavage treated up to 24 hrs prior to test and LPS challenge up to 7.5 hrs prior to test measured up to 12 hrs; format: functional, organism-based
[9] = Aqueous equilibrium solubility of compound in pH 6.8 solution by high throughput assay; format: physicochemical; settings: aqueous pH 6.8 solution
Salmonella typhimurium = assay: Genotoxicity in Salmonella typhimurium by Ames test; format: toxicity; settings: salmonella enterica subsp. enterica serovar typhimurium
[10] = Protein binding in human plasma; format: ADME, cell-free; settings: read-out: PPB (converted)
[11] = Drug uptake in Brown Norway rat neural retina at 10 mg/kg, po administered as single dose via gavage after 6 hrs by LC-MS/MS analysis; format: ADME, organism-based; settings: read-out: Drug uptake
in vitro = settings: human, Caco-2
Mus musculus [12] = assay: In vivo inhibition of Ba generation in plasma of B6-Cfdtm1.1(CFD)Npa mouse at 30 mg/kg, po administered via gavage treated up to 24 hrs prior to test and LPS challenge up to 7.5 hrs prior to test measured up to 8 hrs; format: functional, organism-based
[13] = Apparent permeability from basolateral to apical side in human Caco2 cells; format: ADME, cell-based; settings: Caco-2
[14] = Oral bioavailability in Sprague-Dawley rat at 10 mg/kg by LC-MS/MS analysis; format: ADME, organism-based; settings: in vivo
[15] = AUC (0 to 8 hrs) in Sprague-Dawley rat plasma at 10 mg/kg, po by LC-MS/MS analysis; format: ADME, organism-based; design: dose 10 mg/kg, time < 8 hr, route oral
[16] = Cmax in Sprague-Dawley rat plasma at 10 mg/kg, po by LC-MS/MS analysis; format: ADME, organism-based; design: dose 10 mg/kg, route oral
[17] = Clearance in Sprague-Dawley rat at 1 mg/kg, iv administered as bolus dose by LC-MS/MS analysis; format: ADME, organism-based; settings: in vivo
[18] = Terminal half life in Sprague-Dawley rat at 1 mg/kg, iv administered as bolus dose by LC-MS/MS analysis; format: ADME, organism-based; settings: in vivo, read-out: beta t1/2 (converted)
Complement factor D = Complement factor D (Homo sapiens, UniProt P00746); assay: Inhibition of recombinant human complement factor D catalytic domain (G24 to A253 residues) expressed in expressed in Escherichia coli(Rosetta) using Z-Lys-thiobenzylester as substrate preincubated for 1 hr followed by substrate addition by 2,4-dinitrobenzenesulfonyl-2,7-desmethyl-fluorecein probe based spectrofluorimetric assay

| Compound | solubility thermodynamic [9] [µM] | fraction unbound [10] | Papp A→B (in vitro) [×10⁻⁶ cm/s] | Papp B→A [13] [×10⁻⁶ cm/s] | other results |
| --- | --- | --- | --- | --- | --- |
| NC(=O)c1nn(CC(=O)N2[C@@H]3C[C@@H]3C[C@H]2C(=O)Nc2cccc(Br)n2)c2ccccc12 | 170 (≈ 82.2 µg/mL) | 0.08 | 15.3 | 18.1 | INH (Cynomolgus monkey [1]): >0.5 µM; concentration at 6 h [2]: 360 nM; Activity (Lymphocyte): Non-Toxic; inhibition (Cynomolgus monkey [3]): Active; IC50 (Cytochrome P450 3A4): 17 µM; IC50 (Cytochrome P450 2D6): > 20 µM; IC50 [4]: > 30 µM; concentration at 6 h [5]: 430 nM; EC50 (Cynomolgus monkey [6]): 0.038 µM; IC50 (Cytochrome P450 2C9): > 20 µM; inhibition (Mus musculus [7]): Active; inhibition (Mus musculus [8]): Active; Activity (Salmonella typhimurium): Non-Toxic; concentration at 6 h [11]: 90 nM; inhibition (Mus musculus [12]): Active |
| NC(=O)n1cc(NC(=O)N2[C@@H]3C[C@@H]3C[C@H]2C(=O)Nc2cccc(C(F)(F)F)n2)c2ccccc21 | 110 (≈ 52 µg/mL) | 0.048 | 11.3 | 14.2 | – |
| NC(=O)n1cc(NC(=O)N2CCC[C@H]2C(=O)Nc2cccc(OC(F)(F)F)c2)c2ccccc21 | 17 (≈ 8.08 µg/mL) | – | 6.1 | 6.3 | Activity (Lymphocyte): Non-Toxic; bioavailability [14]: 25%; AUC(0-t) at 8 h [15]: 4.99 µM·h; Cmax [16]: 1170 nM; clearance [17]: 21 mL/min/kg; Activity (Salmonella typhimurium): Non-Toxic; half-life [18]: 1.4 h |
| Cn1cc(NC(=O)N2CCC[C@H]2C(=O)Nc2cccc(OC(F)(F)F)c2)c2ccccc21 | – | – | – | – | IC50 (Complement factor D): 20 µM |
| NC(=O)n1cc(NC(=O)N2C[C@H](F)C[C@H]2C(=O)Nc2cccc(OC(F)(F)F)c2)c2ccccc21 | 7 (≈ 3.45 µg/mL) | – | 0.75 | 8 | – |
| NC(=O)n1cc(NC(=O)N2[C@@H]3C[C@@H]3C[C@H]2C(=O)Nc2cccc(Br)n2)c2ccccc21 | 57 (≈ 27.5 µg/mL) | 0.036 | 9.6 | 10.3 | – |
| NC(=O)n1cc(NC(=O)N2[C@@H]3C[C@@H]3C[C@H]2C(=O)Nc2cccc(C(F)(F)F)c2F)c2ccccc21 | 46 (≈ 22.5 µg/mL) | < 0.01 | 10 | 7 | – |
| NC(=O)n1cc(NC(=O)N2[C@@H]3C[C@@H]3C[C@H]2C(=O)Nc2cccc(OC(F)(F)F)c2F)c2ccccc21 | 10 (≈ 5.05 µg/mL) | – | 5.1 | 6.5 | – |
| NC(=O)n1cc(NC(=O)N2C[C@@H](O)C[C@H]2C(=O)Nc2cccc(OC(F)(F)F)c2)c2ccccc21 | 23 (≈ 11.3 µg/mL) | – | 0.77 | 17 | – |
| NC(=O)c1cn(CC(=O)N2[C@@H]3C[C@@H]3C[C@H]2C(=O)Nc2cccc(Br)n2)c2ccccc12 | – | 0.131 | – | – | – |
| NC(=O)n1cc(NC(=O)N2C[C@@H](N)C[C@H]2C(=O)Nc2cccc(OC(F)(F)F)c2)c2ccccc21 | 280 (≈ 137 µg/mL) | – | 2.1 | 5.1 | – |
| NC(=O)n1cc(NC(=O)N2[C@@H]3C[C@@H]3C[C@H]2C(=O)Nc2cccc(OC(F)(F)F)c2)c2ccccc21 | 77 (≈ 37.5 µg/mL) | – | 4.5 | 5.7 | – |

From ChEMBL document CHEMBL4011635 (J Med Chem, 2017)
